Measurements from patent US20150064305A1, “USE OF PARA NITRO AMINO DERIVATIVES IN FEED FOR REDUCING METH-ANE EMISSION IN RUMINANTS” (DSM IP ASSETS B.V., priority 2012, published 2015).

System: methanogenesis in rumen liquor
Assay: In vitro test for methane production (modified Hohenheim Forage value Test, HFT)
Details: reduction in methane produced compared to control, average of two experiments
Experimental: A modified version of the “Hohenheim Forage value Test (HFT)” was used for testing the effect of specific compounds on the rumen functions mimicked by this in-vitro system.
Feed is given into a syringe with a composition of rumen liquor and an appropriate mixture of buffers. The solution is incubated at 39° C. After 8 hours the quantity (and composition) of methane produced is measured and put into a formula for conversion.
The feed stuff is sieved to 1 mm—usually TMR (44% concentrate, 6% hay, 37% maize silage and 13% grass silage)—and weighed exactly into 64 syringes. 4 of these syringes are the substrate controls, which display the gas production without the effect of the tested compounds. 4 other syringes are positive control, in which bromoethane sulfonate has been added to 0.1 mM. When needed, 4 syringes contain a carrier control (if the test compounds need a carrier). The remaining syringes contain the test substances, by groups of 4 syringes.
The components are mixed in a Woulff bottle in following order: • 711 ml water • 0.18 ml trace element solution • 355.5 ml buffer solution • 355.5 ml mass element solution
The completed solution is warmed up to 39° C. followed by the addition of 1.83 ml sodium salt solution and the addition of reduction solution at 36° C. The rumen liquor is added, when the indicator turns colourless.
750 ml of rumen liquor are added to approximately 1,400 ml of medium solution under continued agitation and CO2-gassing.
The diluted rumen fluid (24 ml) is added to the glass syringe. The syringes are then incubated for 8 hours at 39° C. under gentle agitation. After 8 hours, the volume of gas produced is measured, and the percentage of methane in the gas phase is determined by gas chromatography.
The food fermented was artificial TMR (44% concentrate, 6% hay, 37% maize silage and 13% grass silage). The compounds produced as described in examples 3 to 11 were added to the fermentation syringes to a concentration of 1 to 0.1% of dry matter (DM).
The same in vitro assay as described in Example 1 has been performed with a series of molecules, wherein either the amine group has been replaced or, the amine group is not in para position.

[1] = comparative compounds (Table 3), 1% DM
[2] = 0.1% DM, artificial TMR feed, 8 hours at 39° C.
[3] = 0.25% DM, artificial TMR feed, 8 hours at 39° C.
[4] = 0.5% DM, artificial TMR feed, 8 hours at 39° C.
[5] = 1% DM, artificial TMR feed, 8 hours at 39° C.

| SMILES | effect on methanogenesis (%) [1] [%] | effect on methanogenesis (%) [2] [%] | effect on methanogenesis (%) [3] [%] | effect on methanogenesis (%) [4] [%] | effect on methanogenesis (%) [5] [%] |
| --- | --- | --- | --- | --- | --- |
| Cc1ccc([N+](=O)[O-])cc1 [A, reference compound] | 8 |  |  |  |  |
| O=C(O)c1ccc(C(=O)Nc2ccc([N+](=O)[O-])cc2)cc1 [C, reference compound] | 3 |  |  |  |  |
| Nc1ccc([N+](=O)[O-])cc1 [Compound 1, (4-nitro-phenyl)-amine] |  | 15 | 43 | 88 | 100 |
| CNc1ccc([N+](=O)[O-])cc1 [Compound 2, Methyl-(4-nitro-phenyl)-amine] |  | 3 |  |  | 96 |
| CCNc1ccc([N+](=O)[O-])cc1 [Compound 3, Ethyl-(4-nitro-phenyl)-amine] |  | 0 |  |  | 97 |
| CN(C)c1ccc([N+](=O)[O-])cc1 [Compound 4, Dimethyl-(4-nitro-phenyl)-amine] |  | 0 |  |  | 94 |
| CCCNc1ccc([N+](=O)[O-])cc1 [Compound 5, (4-Nitro-phenyl)-propyl-amine] |  | 5 | 20 | 60 | 100 |
| CC(C)Nc1ccc([N+](=O)[O-])cc1 [Compound 6, Isopropyl-(4-nitro-phenyl)-amine] |  | 2 |  |  | 99 |
| O=[N+]([O-])c1ccc(NCCO)cc1 [Compound 7, 2-(4-Nitro-phenylamino)-ethanol] |  | 6 |  |  | 100 |
| O=[N+]([O-])c1ccc(NCCCO)cc1 [Compound 8, 3-(4-Nitro-phenylamino)-propan-1-ol] |  | 1 |  |  | 100 |
| O=[N+]([O-])c1ccc(NCc2ccccn2)cc1 [Compound 9, 4-Nitro-N-(Pyridin-2-ylmethyl)aniline] |  | 3 |  |  | 95 |
| O=C(O)c1ccc(CNc2ccc([N+](=O)[O-])cc2)cc1 [Compound 10, 4-((4-Nitro-phenylamino)-methyl)-benzoic acid] |  |  | 3 | 21 | 97 |
| O=C(O)c1cccc(CNc2ccc([N+](=O)[O-])cc2)c1 [Compound 11, 3-((4-Nitro-phenylamino)-methyl)-benzoic acid] |  | 1 |  |  | 88 |
| Nc1cccc([N+](=O)[O-])c1 [Compound B, 3-Nitro-phenylamine, reference compound] | 7 |  |  |  |  |
| O=C(O)c1ccc(COc2ccc([N+](=O)[O-])cc2)cc1 [Compound D, 4-(4-Nitro-phenoxymethyl)-benzoic acid, reference compound] | 6 |  |  |  |  |
| O=[N+]([O-])c1ccc(N2CCOCC2)cc1 [Compound F, 4-(4-Nitrophenyl)morpholine, reference compound] | 8 |  |  |  |  |
